# From patent US4123612A, “7-(5-Am ino-5-carboxyvaleramido)-3-(carbamoyoloxymethyl)-3-cephem-4-carboxylic acid” (Eli Lilly and Company, priority 1974, dated 1978)
# Columns and labels:
# [1] = system: Pseudomonas sp. Ps 30; assay: Bauer-Kirby disc diffusion, zone of inhibition; type: cell-based
# [2] = system: Pseudomonas sp. Ps 24; assay: Bauer-Kirby disc diffusion, zone of inhibition; type: cell-based
# [3] = system: Ascaris lumbricoides var. suum; assay: anthelmintic evaluation in mice by treated feed, separate factors (Example 13); type: in vivo; conditions: 0.05 percent in diet, control 2.66
# Description: The feeds were utilized as diets for separate groups of mice, five mice per group. About twelve hours after initiation of the feeding, the mice were infected with Ascaris lumbricoides var. suum ova. Another group of five mice was fed the non-medicated feed to serve as a control but was similarly infected at the same time with Ascaris lumbricoides var. suum. All groups were fed their respective feed and maintained under normal laboratory conditions for a period of eight days, at which time all mice were taken off feed. On the ninth day, all mice were sacrificed and the lungs examined to determine the presence, and if present, numbers, of lesions of Ascaris lumbricoides var. suum.
# In a further evaluation, the monoammonium salts of A16886I and A16886II were separately evaluated for the control of Ascaris lumbricoides var. suum. The evaluations were conducted in accordance with the procedure reported in Example 11 at a concentration in the diet of 0.05 percent.
# [4] = system: Escherichia coli 0127; assay: Bauer-Kirby disc diffusion, zone of inhibition; type: cell-based
# [5] = solubility; type: physicochemical
# [6] = system: Proteus sp. PR6; assay: Bauer-Kirby disc diffusion, zone of inhibition; type: cell-based
# [7] = system: Pseudomonas solanacearum; type: in vivo; conditions: 100 ppm.; 0 = no control, 4 = complete control; heavy infestation in controls
# [8] = system: Klebsiella-Aerobacter KA 14; assay: Bauer-Kirby disc diffusion, zone of inhibition; type: cell-based
# [9] = system: Staphylococcus aureus 3074; assay: Bauer-Kirby disc diffusion, zone of inhibition; type: cell-based
# [10] = system: Salmonella typhosa SA 12; assay: Bauer-Kirby disc diffusion, zone of inhibition; conditions: Salmonella enterica
# Description: (§1) The evaluation was made on the monoammonium salts of separated factors I and II.
# [11] = system: Escherichia coli EC 25; assay: Bauer-Kirby disc diffusion, zone of inhibition; type: cell-based
# [12] = system: Staphylococcus aureus 3055; assay: Bauer-Kirby disc diffusion, zone of inhibition; type: cell-based
# [13] = system: Salmonella typhosa SA 16; assay: Bauer-Kirby disc diffusion, zone of inhibition; conditions: Salmonella enterica
# Description: as §1
# [14] = system: Klebsiella-Aerobacter KA 25; assay: Bauer-Kirby disc diffusion, zone of inhibition; type: cell-based
# [15] = physchem; conditions: 66% dimethylformamide-water
# [16] = system: Proteus sp. PR7; assay: Bauer-Kirby disc diffusion, zone of inhibition; type: cell-based
structure (smiles),measurement,setting,value
"COC1(NC(=O)CCCC(N)C(=O)O)C(=O)N2C(C(=O)O)=C(COC(N)=O)CS[C@@H]21 (stereo partly drawn) [A16886I, 7-(5-amino-5-carboxyvaleramido)-3-(carbamoyloxymethyl)-7-methoxy-3-cephem-4-carboxylic acid]",zone of inhibition at 0.5 µg/disc,"[1]; SP.PS30, 0.5 μg./disc",0 mm
same,zone of inhibition at 1 µg/disc,"[1]; SP.PS30, 1.0 μg./disc",0 mm
same,zone of inhibition at 2.5 µg/disc,"[1]; SP.PS30, 2.5 μg./disc",0 mm
same,zone of inhibition at 5 µg/disc,"[1]; SP.PS30, 5 μg./disc",0 mm
same,zone of inhibition at 10 µg/disc,"[1]; SP.PS30, 10 μg./disc",0 mm
same,zone of inhibition at 30 µg/disc,"[1]; SP.PS30, 30 μg./disc",0 mm
same,zone of inhibition at 0.5 µg/disc,"[2]; SP.PS24, 0.5 μg./disc",0 mm
same,zone of inhibition at 1 µg/disc,"[2]; SP.PS24, 1.0 μg./disc",10.1 mm
same,zone of inhibition at 2.5 µg/disc,"[2]; SP.PS24, 2.5 μg./disc, * = satellite colonies within zone (Factor II)",13.2 mm
same,zone of inhibition at 5 µg/disc,"[2]; SP.PS24, 5 μg./disc, * = satellite colonies within zone (Factor II)",15.7 mm
same,zone of inhibition at 10 µg/disc,"[2]; SP.PS24, 10 μg./disc",18.2 mm
same,zone of inhibition at 30 µg/disc,"[2]; SP.PS24, 30 μg./disc",23 mm
same,Average Number of Lung Lesions Per Group,[3],0.46
same,zone of inhibition at 0.5 µg/disc,[4]; 0.5 μg./disc,8.4 mm
same,zone of inhibition at 1 µg/disc,[4]; 1.0 μg./disc,12.7 mm
same,zone of inhibition at 2.5 µg/disc,[4]; 2.5 μg./disc,15.9 mm
same,zone of inhibition at 5 µg/disc,[4]; 5 μg./disc,18.6 mm
same,zone of inhibition at 10 µg/disc,[4]; 10 μg./disc,20.7 mm
same,zone of inhibition at 30 µg/disc,[4]; 30 μg./disc,25.6 mm
same,solubility in acetonitrile and other organic solvents,[5]; acetonitrile and other organic solvents,essentially insoluble
same,solubility in lower alkanols,[5]; lower alkanols,slightly soluble
same,solubility in water,[5]; water,very soluble
same,zone of inhibition at 0.5 µg/disc,[6]; 0.5 μg./disc,0 mm
same,zone of inhibition at 1 µg/disc,[6]; 1.0 μg./disc,9.9 mm
same,zone of inhibition at 2.5 µg/disc,[6]; 2.5 μg./disc,13.6 mm
same,zone of inhibition at 5 µg/disc,[6]; 5 μg./disc,16.7 mm
same,zone of inhibition at 10 µg/disc,[6]; 10 μg./disc,19 mm
same,zone of inhibition at 30 µg/disc,[6]; 30 μg./disc,23.2 mm
same,Disease Rating,[7],4
same,zone of inhibition at 0.5 µg/disc,[8]; 0.5 μg./disc,0 mm
same,zone of inhibition at 1 µg/disc,[8]; 1.0 μg./disc,7.6 mm
same,zone of inhibition at 2.5 µg/disc,[8]; 2.5 μg./disc,11.4 mm
same,zone of inhibition at 5 µg/disc,[8]; 5 μg./disc,15.4 mm
same,zone of inhibition at 10 µg/disc,[8]; 10 μg./disc,18.8 mm
same,zone of inhibition at 30 µg/disc,[8]; 30 μg./disc,23 mm
same,zone of inhibition at 0.5 µg/disc,[9]; 0.5 μg./disc,0 mm
same,zone of inhibition at 1 µg/disc,[9]; 1.0 μg./disc,0 mm
same,zone of inhibition at 2.5 µg/disc,[9]; 2.5 μg./disc,0 mm
same,zone of inhibition at 5 µg/disc,[9]; 5 μg./disc,0 mm
same,zone of inhibition at 10 µg/disc,[9]; 10 μg./disc,0 mm
same,zone of inhibition at 30 µg/disc,[9]; 30 μg./disc,0 mm
same,zone of inhibition at 0.5 µg/disc,[10],8 mm
same,zone of inhibition at 1 µg/disc,[10],11.3 mm
same,zone of inhibition at 2.5 µg/disc,[10],16.9 mm
same,zone of inhibition at 5 µg/disc,[10],19.9 mm
same,zone of inhibition at 10 µg/disc,[10],22.8 mm
same,zone of inhibition at 30 µg/disc,[10],27.2 mm
same,zone of inhibition at 0.5 µg/disc,"[11]; EC25, 0.5 μg./disc",0 mm
same,zone of inhibition at 1 µg/disc,"[11]; EC25, 1.0 μg./disc",0 mm
same,zone of inhibition at 2.5 µg/disc,"[11]; EC25, 2.5 μg./disc",9.1 mm
same,zone of inhibition at 5 µg/disc,"[11]; EC25, 5 μg./disc",12.5 mm
same,zone of inhibition at 10 µg/disc,"[11]; EC25, 10 μg./disc",15.1 mm
same,zone of inhibition at 30 µg/disc,"[11]; EC25, 30 μg./disc",19.6 mm
same,zone of inhibition at 0.5 µg/disc,[12]; 0.5 μg./disc,0 mm
same,zone of inhibition at 1 µg/disc,[12]; 1.0 μg./disc,0 mm
same,zone of inhibition at 2.5 µg/disc,[12]; 2.5 μg./disc,0 mm
same,zone of inhibition at 5 µg/disc,[12]; 5 μg./disc,0 mm
same,zone of inhibition at 10 µg/disc,[12]; 10 μg./disc,0 mm
same,zone of inhibition at 30 µg/disc,[12]; 30 μg./disc,0 mm
same,zone of inhibition at 0.5 µg/disc,[13],0 mm
same,zone of inhibition at 1 µg/disc,[13],9.3 mm
same,zone of inhibition at 2.5 µg/disc,[13],13.1 mm
same,zone of inhibition at 5 µg/disc,[13],16.2 mm
same,zone of inhibition at 10 µg/disc,[13],19.6 mm
same,zone of inhibition at 30 µg/disc,[13],24.2 mm
same,zone of inhibition at 0.5 µg/disc,[14]; 0.5 μg./disc,0 mm
same,zone of inhibition at 1 µg/disc,[14]; 1.0 μg./disc,0 mm
same,zone of inhibition at 2.5 µg/disc,[14]; 2.5 μg./disc,9 mm
same,zone of inhibition at 5 µg/disc,[14]; 5 μg./disc,12.3 mm
same,zone of inhibition at 10 µg/disc,[14]; 10 μg./disc,15.8 mm
same,zone of inhibition at 30 µg/disc,[14]; 30 μg./disc,22.1 mm
same,pKa,"[15]; pH 6.5, pK'a1",4.1
same,pKa,"[15]; pH 6.5, pK'a2",5.2
same,pKa,"[15]; pH 6.5, pK'a3",9.3
same,pKa,"[15]; pH 6.5, pK'a4",10.5
same,zone of inhibition at 0.5 µg/disc,[16]; 0.5 μg./disc,0 mm
same,zone of inhibition at 1 µg/disc,[16]; 1.0 μg./disc,0 mm
same,zone of inhibition at 2.5 µg/disc,[16]; 2.5 μg./disc,0 mm
same,zone of inhibition at 5 µg/disc,[16]; 5 μg./disc,0 mm
same,zone of inhibition at 10 µg/disc,[16]; 10 μg./disc,10.4 mm
same,zone of inhibition at 30 µg/disc,[16]; 30 μg./disc,14 mm
